In PubChem BioAssay (NCI) one finds GI50 and TGI data, which are given here for 12 compounds.

The structures appear in SMILES notation. Several values for one entry are separate records, joined by “and”; a condition that tells them apart may be missing. Identical values can stand only once.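 The compound was tested at five concentrations on cells cultured in 96-well plates, with a 48-hour exposure period. GI50 is the concentration that inhibits growth by half. TGI denotes the concentration required for complete inhibition of growth.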

Among the test systems are HCC-2998 colon; HOP-62 NSCLC; HS 578T breast; IGROV1 ovarian; NCI-H522 lung; OVCAR-4 ovarian; SK-MEL-28 melanoma; SK-MEL-5 melanoma; SNB-75 CNS; UACC-62 melanoma.
Assay in all cases: growth of human tumour cells (NCI), 48 h

As for `COCCOC(=O)NC(=O)Nc1ccc(/C(=N/O)c2ccc(Cl)cc2)cc1`, the GI50 is 200 nM in the experiment with HCC-2998 colon; 0.127 µM with HOP-62 NSCLC; 0.157 µM in the experiment with HS 578T breast; 0.269 µM with IGROV1 ovarian; 123 nM in the experiment on NCI-H522 lung; 385 nM in the experiment on OVCAR-4 ovarian. The GI50 was 11.5 µM in the experiment with SK-MEL-28 melanoma, 81.7 nM in the experiment on SK-MEL-5 melanoma, 129 nM in the experiment with SNB-75 CNS and 109 nM in the experiment on UACC-62 melanoma. The TGI in the experiment on HCC-2998 colon was 7.04 µM; in the experiment with HOP-62 NSCLC, 41.2 µM; in the experiment with HS 578T breast, 34.3 µM; in the experiment on IGROV1 ovarian it was greater than 69 µM; in the experiment with NCI-H522 lung, 5.58 µM; in the experiment with OVCAR-4 ovarian, 54.2 µM. For the same compound, the TGI in the experiment on SK-MEL-28 melanoma was determined as 48 µM; in the experiment with SK-MEL-5 melanoma, 2.85 µM; in the experiment with SNB-75 CNS, 7.94 µM; in the experiment on UACC-62 melanoma, 15.8 µM.

With `Nc1ccc2c(c1)NCCN2`, the TGI with HCC-2998 colon, in the experiment with HOP-62 NSCLC, with HS 578T breast, with IGROV1 ovarian, in the experiment with NCI-H522 lung and in the experiment with OVCAR-4 ovarian was greater than 100 µM in each case. The TGI with SK-MEL-28 melanoma is greater than 100 µM; with SK-MEL-5 melanoma, 46.8 µM; in the experiment with SNB-75 CNS, greater than 100 µM; in the experiment with UACC-62 melanoma, greater than 100 µM.

In the case of `Cc1cc(C)c(C[N+](C)(C)C)c(C)c1C`, the GI50 in the experiment on HCC-2998 colon was 521 nM; in the experiment on HOP-62 NSCLC it was 0.323 µM; in the experiment with HS 578T breast it was 0.338 µM; in the experiment on IGROV1 ovarian, 0.477 µM; with NCI-H522 lung, 208 nM; with OVCAR-4 ovarian, 762 nM. The GI50 was 0.365 µM with SK-MEL-28 melanoma, 209 nM in the experiment with SK-MEL-5 melanoma, 402 nM in the experiment with SNB-75 CNS and 538 nM in the experiment with UACC-62 melanoma. In addition, the TGI in the experiment with HCC-2998 colon is 12.4 µM; in the experiment on HOP-62 NSCLC, 7.59 µM; with HS 578T breast, 9.94 µM; in the experiment with IGROV1 ovarian it was greater than 95.7 µM; in the experiment on NCI-H522 lung, 2.61 µM; in the experiment on OVCAR-4 ovarian, greater than 27.1 µM. Moreover, the TGI was found to be 23.5 µM with SK-MEL-28 melanoma, 2.82 µM with SK-MEL-5 melanoma, 11.5 µM in the experiment with SNB-75 CNS and 18.9 µM in the experiment with UACC-62 melanoma.

Turning to `CC[C@@]1(O)C(=O)NCc2c1cc1n(c2=O)Cc2cc3c(N)cccc3nc2-1`, the GI50 in the experiment with HCC-2998 colon was 2040 nM; in the experiment with HOP-62 NSCLC, 0.973 µM; in the experiment with HS 578T breast it was greater than 17.4 µM; with IGROV1 ovarian, 10.1 µM; in the experiment on NCI-H522 lung, 176 nM; in the experiment with OVCAR-4 ovarian, 11400 nM. For the same compound, the GI50 was 8.8 µM in the experiment with SK-MEL-28 melanoma, 1230 nM in the experiment on SK-MEL-5 melanoma, 873 nM with SNB-75 CNS and 1150 nM in the experiment with UACC-62 melanoma. For the same compound, the TGI in the experiment on HCC-2998 colon was 9.24 µM; with HS 578T breast, greater than 64.3 µM; with IGROV1 ovarian, greater than 100 µM; in the experiment with NCI-H522 lung, 9.71 µM; in the experiment on OVCAR-4 ovarian it was greater than 41.5 µM; in the experiment on SK-MEL-28 melanoma, greater than 77.7 µM. In addition, the TGI with SK-MEL-5 melanoma is 17.3 µM; in the experiment with SNB-75 CNS, greater than 18.3 µM; in the experiment on UACC-62 melanoma it was 20.2 µM.

Regarding `C[C@]1(CO)[C@H]2CC[C@@]34C=C[C@@](CO)(CC[C@H]3[C@]2(C)CC[C@H]1O)C4`, the TGI with HCC-2998 colon, with HOP-62 NSCLC, in the experiment with HS 578T breast, with IGROV1 ovarian, in the experiment on NCI-H522 lung and in the experiment on OVCAR-4 ovarian was greater than 100 µM throughout. Moreover, the TGI was greater than 100 µM in the experiment on SK-MEL-28 melanoma, 32.3 µM with SK-MEL-5 melanoma, greater than 100 µM with SNB-75 CNS and greater than 100 µM with UACC-62 melanoma.

As to `CCOC(=O)C(Cc1c[nH]c2ccc(N(CCCl)CCCl)cc12)(NC(C)=O)C(=O)OCC`, the GI50 is 12100 nM and 13400 nM in the experiment on HCC-2998 colon; 14.4 µM and 10.1 µM in the experiment with HOP-62 NSCLC; 69.5 µM and 20.9 µM in the experiment on HS 578T breast; 19.4 µM in the experiment with IGROV1 ovarian; 170 nM with NCI-H522 lung; 53000 nM and 47800 nM with OVCAR-4 ovarian. Also, the GI50 in the experiment on SK-MEL-28 melanoma is 31.6 µM and 23 µM; in the experiment with SK-MEL-5 melanoma it was 7340 nM and 24500 nM; in the experiment on SNB-75 CNS, 11500 nM and 6530 nM; with UACC-62 melanoma it was 12100 nM. Moreover, the TGI is 30.2 µM and 36.4 µM with HCC-2998 colon; 51.7 µM and 66.8 µM with HOP-62 NSCLC; 68.3 µM with HS 578T breast; 102 µM in the experiment on IGROV1 ovarian; 1.93 µM with NCI-H522 lung; 682 µM in the experiment with OVCAR-4 ovarian. The TGI is 238 µM in the experiment on SK-MEL-28 melanoma; 25.5 µM and 137 µM in the experiment on SK-MEL-5 melanoma; 67.9 µM and 57 µM in the experiment with SNB-75 CNS; 26 µM with UACC-62 melanoma.

Turning to `CC(C)c1ccc(C(=O)Nc2sc3c(c2C#N)CCC(=O)C3)cc1`, the GI50 is 1940 nM with HCC-2998 colon; 3.02 µM in the experiment with HOP-62 NSCLC; 0.546 µM in the experiment on HS 578T breast; 0.458 µM with IGROV1 ovarian; 248 nM with NCI-H522 lung; 294 nM in the experiment with OVCAR-4 ovarian. Also, the GI50 in the experiment on SK-MEL-28 melanoma was 0.754 µM; in the experiment with SK-MEL-5 melanoma it was 979 nM; in the experiment on SNB-75 CNS, 601 nM; in the experiment with UACC-62 melanoma it was 318 nM. The TGI in the experiment with HCC-2998 colon is greater than 37.4 µM; with HOP-62 NSCLC, greater than 87.6 µM; in the experiment with HS 578T breast, greater than 100 µM; in the experiment with IGROV1 ovarian, 13.1 µM; with NCI-H522 lung, 2.16 µM; in the experiment with OVCAR-4 ovarian, 1.36 µM. The TGI in the experiment with SK-MEL-28 melanoma is 9.84 µM; in the experiment with SK-MEL-5 melanoma it was 2.52 µM; in the experiment with SNB-75 CNS it was 5.38 µM; with UACC-62 melanoma, 1.6 µM.

For the compound `COC(=O)c1c2c(c(C)[n+]([O-])c1C)C(=O)C=C(NCc1ccc(F)c(F)c1)C2=O`, the GI50 in the experiment on HCC-2998 colon was 359 nM; in the experiment on HOP-62 NSCLC, 0.86 µM; in the experiment on HS 578T breast, 1.89 µM; with IGROV1 ovarian, 0.36 µM; with NCI-H522 lung, 286 nM; in the experiment with OVCAR-4 ovarian, 177 nM. Further, the GI50 in the experiment with SK-MEL-28 melanoma is 0.84 µM; in the experiment on SK-MEL-5 melanoma, 167 nM; with SNB-75 CNS, 1630 nM; with UACC-62 melanoma, 61.8 nM. In addition, the TGI stood at 1.43 µM in the experiment on HCC-2998 colon; 2.5 µM in the experiment on HOP-62 NSCLC; 6.17 µM in the experiment on HS 578T breast; 1.68 µM in the experiment on IGROV1 ovarian; 1.35 µM with NCI-H522 lung; 0.666 µM in the experiment with OVCAR-4 ovarian. The TGI was found to be 2.43 µM in the experiment with SK-MEL-28 melanoma, 0.308 µM with SK-MEL-5 melanoma, 2.99 µM with SNB-75 CNS and 0.612 µM with UACC-62 melanoma.

With `O=C(NCCCNc1cc(-c2cn(-c3ccccc3)nc2-c2cccc(O)c2)ccn1)c1ccccc1`, the GI50 in the experiment on HCC-2998 colon is 1920 nM; with HOP-62 NSCLC, 3.79 µM; in the experiment on HS 578T breast it was 3.06 µM; in the experiment with IGROV1 ovarian, 4.2 µM; in the experiment on NCI-H522 lung, 3060 nM; in the experiment with OVCAR-4 ovarian, 3560 nM. Besides, the GI50 in the experiment with SK-MEL-28 melanoma was 2.18 µM; in the experiment with SK-MEL-5 melanoma, 1490 nM; in the experiment on SNB-75 CNS, 1680 nM; with UACC-62 melanoma, 3150 nM. Besides, the TGI with HCC-2998 colon was 3.69 µM; in the experiment with HOP-62 NSCLC it was 14.1 µM; in the experiment on HS 578T breast, 48.3 µM; in the experiment on IGROV1 ovarian, 59.6 µM; with NCI-H522 lung it was 17.1 µM; in the experiment on OVCAR-4 ovarian it was 77.3 µM. Further, the TGI in the experiment on SK-MEL-28 melanoma came to 6.08 µM; in the experiment with SK-MEL-5 melanoma it was 3.12 µM; in the experiment on SNB-75 CNS, 46.9 µM; in the experiment on UACC-62 melanoma, 12.2 µM.

With `NNc1cccc(/C=C/c2ccccc2)cc1=O`, the GI50 in the experiment on HCC-2998 colon is 16800 nM; with HOP-62 NSCLC it was 9.3 µM; in the experiment with HS 578T breast, 18.5 µM; with IGROV1 ovarian it was 4.26 µM; in the experiment with NCI-H522 lung, 8180 nM; in the experiment on OVCAR-4 ovarian it was 4660 nM. The GI50 was 35.9 µM in the experiment on SK-MEL-28 melanoma, 11700 nM in the experiment with SK-MEL-5 melanoma, 31000 nM with SNB-75 CNS and 5330 nM with UACC-62 melanoma. Moreover, the TGI is greater than 100 µM in the experiment on HCC-2998 colon; greater than 100 µM in the experiment on HOP-62 NSCLC; greater than 100 µM with HS 578T breast; 46.1 µM in the experiment with IGROV1 ovarian; greater than 100 µM with NCI-H522 lung; greater than 100 µM in the experiment on OVCAR-4 ovarian. Besides, the TGI with SK-MEL-28 melanoma was greater than 100 µM; with SK-MEL-5 melanoma, greater than 100 µM; with SNB-75 CNS it was greater than 100 µM; in the experiment with UACC-62 melanoma it was 93.1 µM.

`O=C1C=C(Br)C(=O)C12CCc1ccccc12` (centres undefined): the TGI in the experiment with HCC-2998 colon was 40.2 µM; in the experiment with HOP-62 NSCLC it was 69 µM; with HS 578T breast it was greater than 82.5 µM; in the experiment on IGROV1 ovarian it was 39.3 µM; in the experiment with NCI-H522 lung, 10.2 µM; in the experiment on OVCAR-4 ovarian, 52.4 µM. The TGI was 27.2 µM with SK-MEL-28 melanoma, 34.6 µM in the experiment with SK-MEL-5 melanoma, 29.5 µM in the experiment with SNB-75 CNS and 32 µM in the experiment with UACC-62 melanoma.

Take `COc1ccc(/C=C/c2nc(NCCCN(C)C)c3ccccc3n2)cc1`: the GI50 in the experiment on HCC-2998 colon was 13800 nM; in the experiment with HOP-62 NSCLC it was 5.16 µM; in the experiment on HS 578T breast it was 3.22 µM; in the experiment on IGROV1 ovarian, 3.39 µM; with NCI-H522 lung, 1830 nM; in the experiment on OVCAR-4 ovarian it was 2070 nM. Besides, the GI50 with SK-MEL-28 melanoma is 4.57 µM; with SK-MEL-5 melanoma, 1710 nM; in the experiment with SNB-75 CNS it was 1340 nM; in the experiment on UACC-62 melanoma, 11100 nM. The TGI in the experiment with HCC-2998 colon is 27.6 µM; in the experiment with HOP-62 NSCLC, 9.74 µM; with HS 578T breast, 11 µM; in the experiment on IGROV1 ovarian, 10.6 µM; in the experiment on NCI-H522 lung, 3.66 µM; in the experiment with OVCAR-4 ovarian, 5.58 µM. Besides, the TGI in the experiment on SK-MEL-28 melanoma came out at 9 µM; with SK-MEL-5 melanoma it was 3.27 µM; with SNB-75 CNS, 2.88 µM; with UACC-62 melanoma it was 25.4 µM.
